# Molecular target: T1, human MER (Homo sapiens, UniProt Q12866)
# T1 construct: purchased Invitrogen
# T1 sequence (Q12866 21-999): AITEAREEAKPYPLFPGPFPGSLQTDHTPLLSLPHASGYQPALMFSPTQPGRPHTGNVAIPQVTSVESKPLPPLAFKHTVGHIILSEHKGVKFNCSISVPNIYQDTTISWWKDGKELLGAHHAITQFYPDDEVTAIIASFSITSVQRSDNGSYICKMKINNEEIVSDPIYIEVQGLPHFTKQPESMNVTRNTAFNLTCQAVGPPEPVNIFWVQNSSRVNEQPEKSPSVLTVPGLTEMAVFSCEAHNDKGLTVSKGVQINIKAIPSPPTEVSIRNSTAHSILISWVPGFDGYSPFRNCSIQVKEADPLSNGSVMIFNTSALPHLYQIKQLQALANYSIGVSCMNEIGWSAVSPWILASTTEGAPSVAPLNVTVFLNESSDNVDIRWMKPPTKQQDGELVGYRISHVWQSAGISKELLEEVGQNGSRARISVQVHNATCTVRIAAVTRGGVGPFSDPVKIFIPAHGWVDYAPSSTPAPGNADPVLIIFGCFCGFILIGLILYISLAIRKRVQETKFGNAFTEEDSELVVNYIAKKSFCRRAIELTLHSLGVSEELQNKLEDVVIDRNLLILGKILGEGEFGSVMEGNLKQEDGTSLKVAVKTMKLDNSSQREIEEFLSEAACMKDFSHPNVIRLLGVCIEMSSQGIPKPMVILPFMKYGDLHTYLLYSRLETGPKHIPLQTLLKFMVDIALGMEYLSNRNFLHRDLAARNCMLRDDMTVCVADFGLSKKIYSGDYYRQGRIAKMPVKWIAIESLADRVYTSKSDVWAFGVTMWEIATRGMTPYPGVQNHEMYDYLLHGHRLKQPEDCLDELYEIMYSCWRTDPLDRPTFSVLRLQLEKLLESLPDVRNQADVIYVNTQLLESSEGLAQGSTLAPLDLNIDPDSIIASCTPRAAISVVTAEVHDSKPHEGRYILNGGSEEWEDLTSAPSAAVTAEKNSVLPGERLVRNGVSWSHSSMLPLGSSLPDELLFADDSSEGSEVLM
# Assay: HTRF KinEASE-TK biochemical potency assay, MER
# Details: 1 nM MER, 700 μM ATP, 800 nM TK Substrate-biotin
# Summary of the method: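 Recombinant human kinase preincubated 1 h at RT with compound, then reacted 2 h at RT with 800 nM biotin-TK substrate and 700 μM ATP (final; 5 nM AXL, 1 nM TYRO3 or MER) in HEPES pH 7.4, MgCl2, BSA, DTT, 1% DMSO. HTRF 665/620 ratio read; percent activity versus DMSO and pre-quenched controls.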
row,Compound,IC50
1,"NC(=O)c1ccc(-c2n[nH]c3ncc(-c4ccc5c(c4)CCC(N4CCCC4)CC5)cc23)cc1Cl (stereo not shown) [Example 77, 2-Chloro-4-(5-(7-(pyrrolidin-1-yl)-6,7,8,9-tetrahydro-5H-benzo[7]annulen-2-yl)-1H-pyrazolo[3,4-b]pyridin-3-yl)benzamide]",< 100 nM
2,"COc1cc(-c2n[nH]c3ncc(-c4ccc5c(c4)CCC(C)(N4CCC[C@H]4C)CC5)cc23)ccc1S(N)(=O)=O (stereo partly drawn) [Example 87, 2-Methoxy-4-(5-(7-methyl-7-((R)-2-methylpyrrolidin-1-yl)-6,7,8,9-tetrahydro-5H-benzo[7]annulen-2-yl)-1H-pyrazolo[3,4-b]pyridin-3-yl)benzenesulfonamide]",100 to 1000 nM
3,"NC(=O)c1ccc(-c2n[nH]c3ncc(-c4ccc5c(c4)CC[C@@H](N4CCCC4)CC5)cc23)cc1Cl [Example 84, (S)-2-Chloro-4-(5-(7-(pyrrolidin-1-yl)-6,7,8,9-tetrahydro-5H-benzo[7]annulen-2-yl)-1H-pyrazolo[3,4-b]pyridin-3-yl)benzamide]",< 100 nM
4,"COCCNC(=O)c1ccc(-c2n[nH]c3ncc(-c4ccc5c(c4)CCC(C)(N4CCC[C@H]4C)CC5)cc23)cc1 (stereo partly drawn) [Example 72, N-(2-Methoxyethyl)-4-(5-{7-methyl-7-[(2R)-2-methylpyrrolidin-1-yl]-6,7,8,9-tetrahydro-5H-benzo[7]annulen-2-yl}-1H-pyrazolo[3,4-b]pyridin-3-yl)benzamide]",> 1000 nM
5,"CCC1(N2CCC[C@H]2C)CCc2ccc(-c3cnc4[nH]nc(-c5ccc(C(N)=O)c(Cl)c5)c4c3)cc2CC1 (stereo partly drawn) [Example 73, 2-Chloro-4-(5-{7-ethyl-7-[(2R)-2-methylpyrrolidin-1-yl]-6,7,8,9-tetrahydro-5H-benzo[7]annulen-2-yl}-1H-pyrazolo[3,4-b]pyridin-3-yl)benzamide]",< 100 nM
6,"NC(=O)c1ccc(-c2n[nH]c3ncc(-c4ccc5c(c4)CCC(N4CCCC4)CC5)cc23)cc1 (stereo not shown) [Example 78, 4-(5-(7-(Pyrrolidin-1-yl)-6,7,8,9-tetrahydro-5H-benzo[7]annulen-2-yl)-1H-pyrazolo[3,4-b]pyridin-3-yl)benzamide]",100 to 1000 nM

# Further lines, results first:
row,IC50,Compound
1,100 to 1000 nM,"COC1CCN(C(=O)c2ccc(-c3n[nH]c4ncc(-c5ccc6c(c5)CCC(C)(N5CCC[C@H]5C)CC6)cc34)cc2Cl)CC1 (stereo partly drawn) [Example 67, 1-[2-Chloro-4-(5-{7-methyl-7-[(2R)-2-methylpyrrolidin-1-yl]-6,7,8,9-tetrahydro-5H-benzo[7]annulen-2-yl}-1H-pyrazolo[3,4-b]pyridin-3-yl)benzoyl]-4-methoxypiperidine]"
2,100 to 1000 nM,"C[C@@H]1CCCN1C1(C)CCc2ccc(-c3cnc4[nH]nc(-c5ccc(C(=O)N6CCC6)cc5)c4c3)cc2CC1 (stereo partly drawn) [Example 76, (2R)-1-(2-{3-[4-(Azetidine-1-carbonyl)phenyl]-1H-pyrazolo[3,4-b]pyridin-5-yl}-7-methyl-6,7,8,9-tetrahydro-5H-benzo[7]annulen-7-yl)-2-methylpyrrolidine]"
3,100 to 1000 nM,"NS(=O)(=O)c1ccc(-c2n[nH]c3ncc(-c4ccc5c(c4)CCN(C4CCCC4)CC5)cc23)cc1Cl [Example 92, 2-Chloro-4-(5-(3-cyclopentyl-2,3,4,5-tetrahydro-1H-benzo[d]azepin-7-yl)-1H-pyrazolo[3,4-b]pyridin-3-yl)benzenesulfonamide]"
4,100 to 1000 nM,"NC(=O)c1ccc(-c2n[nH]c3ncc(-c4ccc5c(c4)CCC(N4CCCC4)CC5)cc23)cc1F (stereo not shown) [Example 81, 2-Fluoro-4-(5-(7-(pyrrolidin-1-yl)-6,7,8,9-tetrahydro-5H-benzo[7]annulen-2-yl)-1H-pyrazolo[3,4-b]pyridin-3-yl)benzamide]"
5,100 to 1000 nM,"COC1CCN(C(=O)c2ccc(-c3n[nH]c4ncc(-c5ccc6c(c5)CC[C@@H](N5CCCC5)CC6)cc34)cc2Cl)CC1 [Example 66, (S)-(2-Chloro-4-(5-(7-(pyrrolidin-1-yl)-6,7,8,9-tetrahydro-5H-benzo[7]annulen-2-yl)-1H-pyrazolo[3,4-b]pyridin-3-yl)phenyl)(4-methoxypiperidin-1-yl)methanone]"
6,100 to 1000 nM,"O=C(c1ccc(-c2n[nH]c3ncc(-c4ccc5c(c4)CC[C@@H](N4CCCC4)CC5)cc23)cc1Cl)N1CCC(O)CC1 [Example 85, (S)-(2-Chloro-4-(5-(7-(pyrrolidin-1-yl)-6,7,8,9-tetrahydro-5H-benzo[7]annulen-2-yl)-1H-pyrazolo[3,4-b]pyridin-3-yl)phenyl)(4-hydroxypiperidin-1-yl)methanone]"
7,> 1000 nM,"CC1(N2CCOCC2)CCc2ccc(-c3cnc4[nH]nc(-c5ccc(S(=O)(=O)C6CC6)cc5)c4c3)cc2CC1 (stereo not shown) [Example 2, 4-(2-{3-[4-(Cyclopropanesulfonyl)phenyl]-1H-pyrazolo[3,4-b]pyridin-5-yl}-7-methyl-6,7,8,9-tetrahydro-5H-benzo[7]annulen-7-yl)morpholine]"

# — patent publication US20240246967A1, “AXL COMPOUNDS” (ARCUS BIOSCIENCES, INC., priority 2021, published 2024)
